ChEMBL document CHEMBL3880382, “TRH-like peptide derivatives as inhibitors of the TRH-degrading ectoenzyme” (2010)
Active and inactive are the calls of the source. The calls are words filed in the database; no cut-off is given here. Non-standard residues stand in square brackets, D forms with d. Residues, ends and D or L forms follow the SMILES beside them. *: point of attachment. AMC = Cc1cc(=O)oc2cc(N*)ccc12; pGlu = O=C1CC[C@@H](C(=O)O)N1

Columns and labels:
Rattus norvegicus [1] = experiment: Behavioral effect in cannulated Wistar rat assessed as number of wet dog shakes at 10 mg/kg, ip measured every 5 mins for 30 secs during 40 mins observation period; type: functional
[2] = molecular target: T1, Thyrotropin-releasing hormone-degrading ectoenzyme (Homo sapiens, UniProt Q9UKU6); experiment: Competitive inhibition of TRH-DE (unknown origin)
T1 sequence (Q9UKU6 whole entry): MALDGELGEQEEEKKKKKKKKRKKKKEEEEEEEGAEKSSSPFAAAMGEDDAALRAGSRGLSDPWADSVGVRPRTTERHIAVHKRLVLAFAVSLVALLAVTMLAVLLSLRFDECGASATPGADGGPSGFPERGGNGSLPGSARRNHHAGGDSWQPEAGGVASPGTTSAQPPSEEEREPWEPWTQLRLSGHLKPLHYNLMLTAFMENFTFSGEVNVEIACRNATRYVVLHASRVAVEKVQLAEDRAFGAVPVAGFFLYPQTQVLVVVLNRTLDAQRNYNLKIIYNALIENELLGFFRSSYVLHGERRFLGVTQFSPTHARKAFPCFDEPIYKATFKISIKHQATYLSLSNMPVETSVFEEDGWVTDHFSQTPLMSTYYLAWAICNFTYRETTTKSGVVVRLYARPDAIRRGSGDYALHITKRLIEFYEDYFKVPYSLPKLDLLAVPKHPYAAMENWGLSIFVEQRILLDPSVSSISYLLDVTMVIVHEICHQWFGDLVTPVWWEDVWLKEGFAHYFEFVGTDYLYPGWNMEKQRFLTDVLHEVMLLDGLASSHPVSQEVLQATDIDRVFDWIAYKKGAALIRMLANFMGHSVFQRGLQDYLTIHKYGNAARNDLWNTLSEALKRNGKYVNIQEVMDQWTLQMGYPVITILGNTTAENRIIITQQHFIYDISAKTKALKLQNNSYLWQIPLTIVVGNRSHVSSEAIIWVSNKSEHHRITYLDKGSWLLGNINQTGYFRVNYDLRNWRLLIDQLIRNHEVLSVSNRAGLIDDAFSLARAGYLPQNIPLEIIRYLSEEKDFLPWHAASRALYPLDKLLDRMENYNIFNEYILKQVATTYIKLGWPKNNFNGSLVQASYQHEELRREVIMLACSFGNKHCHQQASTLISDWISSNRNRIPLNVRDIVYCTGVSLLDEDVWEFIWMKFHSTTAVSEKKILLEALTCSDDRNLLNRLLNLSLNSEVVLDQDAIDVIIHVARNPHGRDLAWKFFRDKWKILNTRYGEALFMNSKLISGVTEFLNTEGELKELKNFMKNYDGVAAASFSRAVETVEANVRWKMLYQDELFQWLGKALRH

[3] = molecular target: T2, Thyrotropin-releasing hormone receptor (Rattus norvegicus, UniProt Q01717); experiment: Displacement of [3H]-3MeHis-TRH from TRH receptor in Sprague-Dawley rat cortical membranes
T2 sequence (Q01717 whole entry): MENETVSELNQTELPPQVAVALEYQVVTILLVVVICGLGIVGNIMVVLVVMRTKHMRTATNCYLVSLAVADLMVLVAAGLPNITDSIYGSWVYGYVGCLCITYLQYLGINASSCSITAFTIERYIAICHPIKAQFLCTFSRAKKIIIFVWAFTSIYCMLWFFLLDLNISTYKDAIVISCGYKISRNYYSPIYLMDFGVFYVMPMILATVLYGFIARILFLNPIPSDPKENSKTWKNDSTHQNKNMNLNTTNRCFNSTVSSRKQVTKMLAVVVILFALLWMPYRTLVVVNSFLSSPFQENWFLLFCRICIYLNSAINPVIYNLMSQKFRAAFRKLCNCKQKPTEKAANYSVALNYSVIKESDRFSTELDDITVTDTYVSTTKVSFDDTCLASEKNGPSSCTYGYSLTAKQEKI

Rattus norvegicus [4] = experiment: In vivo inhibition of TRH-DE in cannulated Wistar rat assessed as increase in TRH-mediated wet dog shakes at 5 ug in 1 ul, icv followed by TRH addition measured after 30 mins relative to control; type: functional
[5] = molecular target: Thyrotropin releasing hormone degrading enzyme (Sus scrofa, UniProt A0A287AP33); experiment: Inhibition of pig brain TRH-DE using Glp-His-ProAMC as substrate by DPP-4-based continuous fluorometric method
Chain of Thyrotropin releasing hormone degrading enzyme (A0A287AP33 whole entry): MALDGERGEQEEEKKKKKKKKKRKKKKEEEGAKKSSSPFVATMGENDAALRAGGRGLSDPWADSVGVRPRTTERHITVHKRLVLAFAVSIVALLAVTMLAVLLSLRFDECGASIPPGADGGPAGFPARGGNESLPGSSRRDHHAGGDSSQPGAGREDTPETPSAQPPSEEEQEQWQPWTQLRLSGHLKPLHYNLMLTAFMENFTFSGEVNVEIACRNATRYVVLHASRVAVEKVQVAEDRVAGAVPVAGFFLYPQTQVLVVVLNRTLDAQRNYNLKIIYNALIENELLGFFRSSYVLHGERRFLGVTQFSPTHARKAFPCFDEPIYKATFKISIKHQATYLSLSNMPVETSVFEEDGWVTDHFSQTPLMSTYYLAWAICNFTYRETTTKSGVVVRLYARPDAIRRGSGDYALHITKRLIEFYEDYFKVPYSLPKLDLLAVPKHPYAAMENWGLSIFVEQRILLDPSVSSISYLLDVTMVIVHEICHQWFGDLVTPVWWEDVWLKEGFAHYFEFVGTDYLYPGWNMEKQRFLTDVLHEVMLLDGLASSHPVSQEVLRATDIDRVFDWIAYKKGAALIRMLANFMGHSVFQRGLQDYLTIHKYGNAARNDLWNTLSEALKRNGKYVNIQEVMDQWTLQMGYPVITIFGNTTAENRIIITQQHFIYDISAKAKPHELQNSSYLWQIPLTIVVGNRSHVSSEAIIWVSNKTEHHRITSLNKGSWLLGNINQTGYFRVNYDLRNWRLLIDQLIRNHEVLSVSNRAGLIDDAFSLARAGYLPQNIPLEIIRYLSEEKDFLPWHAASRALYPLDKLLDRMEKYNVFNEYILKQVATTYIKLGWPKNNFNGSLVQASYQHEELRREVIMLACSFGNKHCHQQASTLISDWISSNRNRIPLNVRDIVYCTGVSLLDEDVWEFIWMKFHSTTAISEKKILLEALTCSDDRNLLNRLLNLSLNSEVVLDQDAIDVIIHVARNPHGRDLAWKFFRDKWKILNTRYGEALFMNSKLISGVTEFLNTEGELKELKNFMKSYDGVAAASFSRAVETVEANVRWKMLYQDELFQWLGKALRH

Rattus norvegicus [6] = experiment: In vivo inhibition of TRH-DE in cannulated Wistar rat assessed as increase in TRH-mediated sniffing at 10 mg/kg, ip measured every 5 mins for 30 secs during 40 mins observation period; type: functional, organism-based
Rattus norvegicus [7] = experiment: In vivo inhibition of TRH-DE in cannulated Wistar rat assessed as increase in TRH-mediated chewing at 10 mg/kg, ip measured every 5 mins for 30 secs during 40 mins observation period; type: functional, organism-based
[8] = molecular target: T3, Thyrotropin releasing hormone degrading enzyme (Sus scrofa) (UniProt A0A287AP33); experiment: Reversible inhibition of pig brain TRH-DE using Glp-His-ProAMC as substrate at 1 uM preincubated for 75 mins by DPP-4-based continuous fluorometric method
T3 sequence (A0A287AP33 as listed by the source): as the sequence (A0A287AP33 whole entry) above

Rattus norvegicus [9] = experiment: In vivo inhibition of TRH-DE in cannulated Wistar rat assessed as increase in TRH-mediated grooming at 10 mg/kg, ip measured every 5 mins for 30 secs during 40 mins observation period; type: functional, organism-based
Rattus norvegicus [10] = experiment: In vivo inhibition of TRH-DE in cannulated Wistar rat assessed as increase in TRH-mediated wet dog shakes at 10 mg/kg, ip measured for last 25 mins of the 40 mins observation period; type: functional, organism-based
[11] = molecular target: T3, Thyrotropin releasing hormone degrading enzyme (Sus scrofa); experiment: Inhibition of pig brain TRH-DE at 1 uM using Glp-His-ProAMC as substrate by DPP-4-based continuous fluorometric method

Row | Compound | Activity (Rattus norvegicus [1]) | Ki [2] | Ki [3] | fold change (FC) (Rattus norvegicus [4]) | Ki [5] | inhibition (Rattus norvegicus [6]) | inhibition (Rattus norvegicus [7]) | inhibition [8] | inhibition (Rattus norvegicus [9]) | inhibition (Rattus norvegicus [10]) | inhibition [11]
1 | O=C(O)C(Cc1ccccc1)N[C@@H](Cc1cn(Cc2ccccc2)cn1)C(=O)Nc1ccc2ccccc2c1 (some centres not stated) | 0 | 8 µM | 0.0224 µM | – | – | – | – | – | – | – | –
2 | Cc1cc(=O)oc2cc(NC(=O)[C@@H]3CCCN3C(=O)[C@H](CC(N)=O)NC(=O)[C@@H]3CCC(=O)N3)ccc12 ([pGlu]-Asn-Pro-{AMC}) | – | – | 47.9 µM | 18 | 0.41 to 0.97 µM | Active | Active | Active | Active | Active | 50%
